Reference: PubChem BioAssay AID2060506 (Molecular Pharmacology Branch, DTP, NCI, 2025)

Tested on: 598228-144-R-J1-PDC complex spheroid viability
Experiment: Anticancer human tumor 598228-144-R-J1-PDC patient-derived serous endometrial adenocarcinoma cell line growth inhibition [GQUAD]
Settings: for IC50: curve of first compound; for viability, T/C: stronger effect = lower value
Method in brief: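 Viability of tumor cells grown as complex spheroids with endothelial and stromal cells, exposed to drug combinations. Top concentration at or near clinical Cmax (else 10 microM), diluted in half-log increments.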

[1] = second compound 0.0316 µM, first compound 0.0316 µM
[2] = second compound 0.0316 µM, first compound 0.1 µM
[3] = second compound 0.0316 µM, first compound 0.316 µM
[4] = second compound 0.0316 µM, first compound 1 µM
[5] = second compound 0.0316 µM, first compound 3.16 µM
[6] = second compound 0.0316 µM, first compound 10 µM
[7] = second compound 0.1 µM, first compound 0.0316 µM
[8] = second compound 0.1 µM, first compound 0.1 µM
[9] = second compound 0.1 µM, first compound 0.316 µM
[10] = second compound 0.1 µM, first compound 1 µM
[11] = second compound 0.1 µM, first compound 3.16 µM
[12] = second compound 0.1 µM, first compound 10 µM
[13] = second compound 0.316 µM, first compound 0.0316 µM
[14] = second compound 0.316 µM, first compound 0.1 µM
[15] = second compound 0.316 µM, first compound 0.316 µM
[16] = second compound 0.316 µM, first compound 1 µM
[17] = second compound 0.316 µM, first compound 3.16 µM
[18] = second compound 0.316 µM, first compound 10 µM
[19] = second compound 1 µM, first compound 0.0316 µM
[20] = second compound 1 µM, first compound 0.1 µM
[21] = second compound 1 µM, first compound 0.316 µM
[22] = second compound 1 µM, first compound 1 µM
[23] = second compound 1 µM, first compound 3.16 µM
[24] = second compound 1 µM, first compound 10 µM
[25] = second compound 3.16 µM, first compound 0.0316 µM
[26] = second compound 3.16 µM, first compound 0.1 µM
[27] = second compound 3.16 µM, first compound 0.316 µM
[28] = second compound 3.16 µM, first compound 1 µM
[29] = second compound 3.16 µM, first compound 3.16 µM
[30] = second compound 3.16 µM, first compound 10 µM
[31] = second compound 10 µM, first compound 0.0316 µM
[32] = second compound 10 µM, first compound 0.1 µM
[33] = second compound 10 µM, first compound 0.316 µM
[34] = second compound 10 µM, first compound 1 µM
[35] = second compound 10 µM, first compound 3.16 µM
[36] = second compound 10 µM, first compound 10 µM
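Note: spheroids exposed to the agents for one week before reading.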
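Throughout, for viability, T/C: percent of vehicle DMSO control viability so 100% = untreated growth.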

For `CC1COCCN1c1cc(-c2ccnn2C)c2ccnc(-c3ccn[nH]3)c2n1` (centres undefined) + Cc1[nH]c2ccc(F)cc2c1-c1nc2c3cccnc3c3ncccc3c2[nH]1, the IC50 (second compound 0.0316 µM) was 209 nM, the IC50 (second compound 0.1 µM) was 221 nM and the IC50 (second compound 0.316 µM) was 78.2 nM. It also gave an IC50 (second compound 1 µM) of less than 31.6 nM, an IC50 (second compound 3.16 µM) of less than 31.6 nM and an IC50 (second compound 10 µM) of less than 31.6 nM. It also gave a viability, T/C [1] of 92.4%, a viability, T/C [2] of 63.8% and a viability, T/C [3] of 41.3%. It also gave a viability, T/C [4] of 43.3%, a viability, T/C [5] of 37.2% and a viability, T/C [6] of 36%. The viability, T/C [7] was 71.1%, the viability, T/C [8] was 55.7% and the viability, T/C [9] was 41.6%. It also gave a viability, T/C [10] of 50.2%, a viability, T/C [11] of 52.6% and a viability, T/C [12] of 44%. For the same compound, the viability, T/C [13] was 59%, the viability, T/C [14] was 47.7% and the viability, T/C [15] was 45.7%. For the same compound, the viability, T/C [16] was 47.2%, the viability, T/C [17] was 43.9% and the viability, T/C [18] was 49.1%. The viability, T/C [19] was 44.3%, the viability, T/C [20] was 41.5% and the viability, T/C [21] was 37.6%. The viability, T/C [22] was 41.8%, the viability, T/C [23] was 45.1% and the viability, T/C [24] was 36.5%. It also gave a viability, T/C [25] of 36.9%, a viability, T/C [26] of 36.9% and a viability, T/C [27] of 39.7%. For the same compound, the viability, T/C [28] was 30.7%, the viability, T/C [29] was 24.9% and the viability, T/C [30] was 22.4%. For the same compound, the viability, T/C [31] was 47%, the viability, T/C [32] was 42.7% and the viability, T/C [33] was 41.4%. For the same compound, the viability, T/C [34] was 36.8%, the viability, T/C [35] was 44.1% and the viability, T/C [36] was 36.5%.

`CC1COCCN1c1cc(C2(S(C)(=N)=O)CC2)nc(-c2ccnc3[nH]ccc23)n1` (centres undefined) + Cc1[nH]c2ccc(F)cc2c1-c1nc2c3cccnc3c3ncccc3c2[nH]1 was tested, and the IC50 (second compound 0.0316 µM) was greater than 10000 nM, the IC50 (second compound 0.1 µM) was 5230 nM and the IC50 (second compound 0.316 µM) was 914 nM. It also gave an IC50 (second compound 1 µM) of 551 nM, an IC50 (second compound 3.16 µM) of less than 31.6 nM and an IC50 (second compound 10 µM) of 629 nM. It also gave a viability, T/C [1] of 114%, a viability, T/C [2] of 108% and a viability, T/C [3] of 89.2%. The viability, T/C [4] was 69.9%, the viability, T/C [5] was 73% and the viability, T/C [6] was 50%. It also gave a viability, T/C [7] of 106%, a viability, T/C [8] of 100% and a viability, T/C [9] of 97.7%. For the same compound, the viability, T/C [10] was 87.1%, the viability, T/C [11] was 56.9% and the viability, T/C [12] was 40.5%. It also gave a viability, T/C [13] of 97.3%, a viability, T/C [14] of 94.4% and a viability, T/C [15] of 69%. The viability, T/C [16] was 47%, the viability, T/C [17] was 52.9% and the viability, T/C [18] was 43.3%. The viability, T/C [19] was 58%, the viability, T/C [20] was 59.7% and the viability, T/C [21] was 58.9%. It also gave a viability, T/C [22] of 40.5%, a viability, T/C [23] of 45.1% and a viability, T/C [24] of 34.5%. It also gave a viability, T/C [25] of 36.9%, a viability, T/C [26] of 42.2% and a viability, T/C [27] of 39.2%. For the same compound, the viability, T/C [28] was 36.8%, the viability, T/C [29] was 39.7% and the viability, T/C [30] was 35.6%. The viability, T/C [31] was 60.3%, the viability, T/C [32] was 53.8% and the viability, T/C [33] was 59.4%. It also gave a viability, T/C [34] of 43.1%, a viability, T/C [35] of 44.6% and a viability, T/C [36] of 41.5%.
